According to the supplement of paper PMC6315032:

Tests used:
Assay in all cases: apparent dissociation constant (pKDapp, Kinobeads competition, Cheng-Prusoff corrected) (-log10 M); higher = tighter binding
[1] = target: WEE1 (UniProt P30291); conditions: affinity matrix / lysate: Kinobeads, mixed HEK293/K-562/placenta lysate
[2] = target: PIK3CB (UniProt P42338); conditions: affinity matrix / lysate: Lipid Kinobeads, mixed HeLa/Jurkat/K-562 lysate
[3] = target: CRKRS (UniProt Q9NYV4); conditions: affinity matrix / lysate: Kinobeads, mixed HEK293/K-562/placenta lysate
[4] = target: RPS6KB1 (UniProt P23443); conditions: affinity matrix / lysate: Kinobeads, mixed HEK293/K-562/placenta lysate
[5] = target: CDC42BPB (UniProt Q9Y5S2); conditions: affinity matrix / lysate: Kinobeads, mixed HEK293/K-562/placenta lysate
[6] = target: PRKCD (UniProt Q05655); conditions: affinity matrix / lysate: Kinobeads, mixed HEK293/K-562/placenta lysate
[7] = target: EIF2AK1 (UniProt Q9BQI3); conditions: affinity matrix / lysate: Kinobeads, mixed HEK293/K-562/placenta lysate
[8] = target: FRK (UniProt P42685); conditions: affinity matrix / lysate: Kinobeads, mixed HEK293/K-562/placenta lysate
[9] = target: CAMK2B (UniProt Q13554); conditions: affinity matrix / lysate: Kinobeads, mixed HEK293/K-562/placenta lysate
[10] = target: STK38L (UniProt Q9Y2H1); conditions: affinity matrix / lysate: Kinobeads, mixed HEK293/K-562/placenta lysate
[11] = target: KIAA0999 (UniProt Q9Y2K2); conditions: affinity matrix / lysate: Kinobeads, mixed HEK293/K-562/placenta lysate
[12] = target: HCK (UniProt P08631); conditions: affinity matrix / lysate: Kinobeads, mixed HEK293/K-562/placenta lysate
[13] = target: ERBB4 (UniProt Q15303); conditions: affinity matrix / lysate: Kinobeads, mixed HEK293/K-562/placenta lysate
[14] = target: FLT4 (UniProt P35916); conditions: affinity matrix / lysate: Kinobeads, mixed HEK293/K-562/placenta lysate
[15] = target: EPHA4 (UniProt P54764); conditions: affinity matrix / lysate: Kinobeads, mixed HEK293/K-562/placenta lysate
[16] = target: CDK8 (UniProt P49336); conditions: affinity matrix / lysate: Kinobeads, mixed HEK293/K-562/placenta lysate
[17] = target: PRKAA1 (UniProt Q13131); conditions: affinity matrix / lysate: Kinobeads, mixed HEK293/K-562/placenta lysate
[18] = target: PIM2 (UniProt Q9P1W9); conditions: affinity matrix / lysate: Kinobeads, mixed HEK293/K-562/placenta lysate
[19] = target: IKBKE (UniProt Q14164); conditions: affinity matrix / lysate: Kinobeads, mixed HEK293/K-562/placenta lysate
[20] = target: EPHB6 (UniProt O15197); conditions: affinity matrix / lysate: Kinobeads, mixed HEK293/K-562/placenta lysate
[21] = target: MAPK9 (UniProt P45984); conditions: affinity matrix / lysate: Kinobeads, mixed HEK293/K-562/placenta lysate
[22] = target: MAP4K2 (UniProt Q12851); conditions: affinity matrix / lysate: Kinobeads, mixed HEK293/K-562/placenta lysate
[23] = target: PDIK1L (UniProt Q8N165); conditions: affinity matrix / lysate: Kinobeads, mixed HEK293/K-562/placenta lysate
[24] = target: STK4 (UniProt Q13043); conditions: affinity matrix / lysate: Kinobeads, mixed HEK293/K-562/placenta lysate
[25] = target: CHEK1 (UniProt O14757); conditions: affinity matrix / lysate: Kinobeads, mixed HEK293/K-562/placenta lysate
[26] = target: NEK2 (UniProt P51955); conditions: affinity matrix / lysate: Kinobeads, mixed HEK293/K-562/placenta lysate
[27] = target: PCTK3 (UniProt Q07002); conditions: affinity matrix / lysate: Kinobeads, mixed HEK293/K-562/placenta lysate
[28] = target: MARK1 (UniProt Q9P0L2); conditions: affinity matrix / lysate: Kinobeads, mixed HEK293/K-562/placenta lysate
[29] = target: PRKCA (UniProt P17252); conditions: affinity matrix / lysate: Kinobeads, mixed HEK293/K-562/placenta lysate
[30] = target: MAP2K2 (UniProt P36507); conditions: affinity matrix / lysate: Kinobeads, mixed HEK293/K-562/placenta lysate
[31] = target: DAPK1 (UniProt P53355); conditions: affinity matrix / lysate: Kinobeads, mixed HEK293/K-562/placenta lysate
[32] = target: MKNK1 (UniProt Q9BUB5); conditions: affinity matrix / lysate: Kinobeads, mixed HEK293/K-562/placenta lysate
[33] = target: GSK3B (UniProt P49841); conditions: affinity matrix / lysate: Kinobeads, mixed HEK293/K-562/placenta lysate

Measured: apparent dissociation constant (-log10 M)

Sequence of IKBKE (Q14164 whole entry): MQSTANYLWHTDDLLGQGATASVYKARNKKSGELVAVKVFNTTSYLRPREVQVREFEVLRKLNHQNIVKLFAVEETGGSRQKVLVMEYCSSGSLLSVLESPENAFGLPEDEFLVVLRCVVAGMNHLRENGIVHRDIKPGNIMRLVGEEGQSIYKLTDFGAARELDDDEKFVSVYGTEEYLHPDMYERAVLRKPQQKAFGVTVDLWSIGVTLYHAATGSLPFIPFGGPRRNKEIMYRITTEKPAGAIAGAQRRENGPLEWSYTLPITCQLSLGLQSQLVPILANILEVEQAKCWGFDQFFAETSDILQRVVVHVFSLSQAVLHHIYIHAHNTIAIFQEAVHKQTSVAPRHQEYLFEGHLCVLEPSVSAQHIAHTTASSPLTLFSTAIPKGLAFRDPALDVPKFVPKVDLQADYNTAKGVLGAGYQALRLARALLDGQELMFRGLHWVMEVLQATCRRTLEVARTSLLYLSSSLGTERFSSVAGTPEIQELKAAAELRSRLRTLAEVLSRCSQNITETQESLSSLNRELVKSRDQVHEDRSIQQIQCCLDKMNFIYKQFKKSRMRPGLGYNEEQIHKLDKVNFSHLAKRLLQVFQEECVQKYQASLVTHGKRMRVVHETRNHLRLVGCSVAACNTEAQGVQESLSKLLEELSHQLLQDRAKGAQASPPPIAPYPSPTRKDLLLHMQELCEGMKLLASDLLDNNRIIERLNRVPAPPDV
Sequence of MARK1 (Q9P0L2 whole entry, looked up): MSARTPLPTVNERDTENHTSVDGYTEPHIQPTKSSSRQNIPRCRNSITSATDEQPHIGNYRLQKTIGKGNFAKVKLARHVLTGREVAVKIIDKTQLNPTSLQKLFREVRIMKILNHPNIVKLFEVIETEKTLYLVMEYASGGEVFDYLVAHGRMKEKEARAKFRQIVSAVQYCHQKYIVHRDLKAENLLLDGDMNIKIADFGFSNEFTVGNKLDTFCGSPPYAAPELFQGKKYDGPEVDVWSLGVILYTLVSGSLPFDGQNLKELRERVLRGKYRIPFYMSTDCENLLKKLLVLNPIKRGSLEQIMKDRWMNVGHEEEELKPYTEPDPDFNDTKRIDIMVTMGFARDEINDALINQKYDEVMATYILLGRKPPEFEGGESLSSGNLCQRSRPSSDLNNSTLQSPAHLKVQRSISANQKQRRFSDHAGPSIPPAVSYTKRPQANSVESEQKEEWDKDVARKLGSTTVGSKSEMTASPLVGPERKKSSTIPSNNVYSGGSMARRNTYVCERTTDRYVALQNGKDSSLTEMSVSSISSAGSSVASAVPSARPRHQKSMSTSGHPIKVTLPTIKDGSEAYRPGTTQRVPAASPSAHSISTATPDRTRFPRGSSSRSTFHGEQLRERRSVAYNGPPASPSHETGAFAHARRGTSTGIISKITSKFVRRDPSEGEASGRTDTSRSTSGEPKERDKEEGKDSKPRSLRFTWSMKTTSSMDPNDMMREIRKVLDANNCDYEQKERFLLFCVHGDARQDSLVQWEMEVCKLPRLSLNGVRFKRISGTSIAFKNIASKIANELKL
Sequence of PIM2 (Q9P1W9 whole entry, looked up): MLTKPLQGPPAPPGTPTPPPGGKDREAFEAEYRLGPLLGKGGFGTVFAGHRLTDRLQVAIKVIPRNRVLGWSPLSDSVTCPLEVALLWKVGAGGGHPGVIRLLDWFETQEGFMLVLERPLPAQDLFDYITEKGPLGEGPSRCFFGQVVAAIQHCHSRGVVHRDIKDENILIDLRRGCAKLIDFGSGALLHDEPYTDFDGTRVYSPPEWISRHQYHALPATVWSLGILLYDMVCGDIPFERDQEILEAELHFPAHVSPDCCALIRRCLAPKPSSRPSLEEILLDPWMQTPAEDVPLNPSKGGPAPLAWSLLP
Sequence of CHEK1 (O14757 whole entry): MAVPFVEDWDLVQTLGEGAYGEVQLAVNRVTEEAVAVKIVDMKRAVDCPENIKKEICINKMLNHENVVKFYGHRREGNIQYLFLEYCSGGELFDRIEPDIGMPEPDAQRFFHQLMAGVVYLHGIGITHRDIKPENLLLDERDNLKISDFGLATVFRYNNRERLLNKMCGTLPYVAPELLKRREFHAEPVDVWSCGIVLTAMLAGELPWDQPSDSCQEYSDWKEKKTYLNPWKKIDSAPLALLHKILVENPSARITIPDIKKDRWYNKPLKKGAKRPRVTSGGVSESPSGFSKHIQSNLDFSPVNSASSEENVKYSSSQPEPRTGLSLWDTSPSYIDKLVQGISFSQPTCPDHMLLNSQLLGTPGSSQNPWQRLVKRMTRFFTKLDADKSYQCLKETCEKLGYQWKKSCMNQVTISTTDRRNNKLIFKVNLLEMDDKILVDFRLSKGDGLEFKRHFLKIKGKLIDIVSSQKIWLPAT
Sequence of STK38L (Q9Y2H1 whole entry, looked up): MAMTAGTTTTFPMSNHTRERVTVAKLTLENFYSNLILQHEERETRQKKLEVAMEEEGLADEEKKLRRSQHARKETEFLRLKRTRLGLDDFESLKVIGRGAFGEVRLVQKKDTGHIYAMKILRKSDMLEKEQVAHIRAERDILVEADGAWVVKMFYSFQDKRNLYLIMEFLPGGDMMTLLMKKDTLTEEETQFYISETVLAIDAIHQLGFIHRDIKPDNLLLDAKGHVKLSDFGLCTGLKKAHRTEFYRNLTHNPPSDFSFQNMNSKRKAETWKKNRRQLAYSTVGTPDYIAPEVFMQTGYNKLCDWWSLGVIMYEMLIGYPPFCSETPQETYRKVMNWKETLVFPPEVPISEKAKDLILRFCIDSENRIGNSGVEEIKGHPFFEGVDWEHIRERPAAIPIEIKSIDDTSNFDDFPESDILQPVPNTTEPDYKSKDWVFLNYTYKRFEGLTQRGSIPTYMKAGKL
Sequence of FLT4 (P35916 whole entry): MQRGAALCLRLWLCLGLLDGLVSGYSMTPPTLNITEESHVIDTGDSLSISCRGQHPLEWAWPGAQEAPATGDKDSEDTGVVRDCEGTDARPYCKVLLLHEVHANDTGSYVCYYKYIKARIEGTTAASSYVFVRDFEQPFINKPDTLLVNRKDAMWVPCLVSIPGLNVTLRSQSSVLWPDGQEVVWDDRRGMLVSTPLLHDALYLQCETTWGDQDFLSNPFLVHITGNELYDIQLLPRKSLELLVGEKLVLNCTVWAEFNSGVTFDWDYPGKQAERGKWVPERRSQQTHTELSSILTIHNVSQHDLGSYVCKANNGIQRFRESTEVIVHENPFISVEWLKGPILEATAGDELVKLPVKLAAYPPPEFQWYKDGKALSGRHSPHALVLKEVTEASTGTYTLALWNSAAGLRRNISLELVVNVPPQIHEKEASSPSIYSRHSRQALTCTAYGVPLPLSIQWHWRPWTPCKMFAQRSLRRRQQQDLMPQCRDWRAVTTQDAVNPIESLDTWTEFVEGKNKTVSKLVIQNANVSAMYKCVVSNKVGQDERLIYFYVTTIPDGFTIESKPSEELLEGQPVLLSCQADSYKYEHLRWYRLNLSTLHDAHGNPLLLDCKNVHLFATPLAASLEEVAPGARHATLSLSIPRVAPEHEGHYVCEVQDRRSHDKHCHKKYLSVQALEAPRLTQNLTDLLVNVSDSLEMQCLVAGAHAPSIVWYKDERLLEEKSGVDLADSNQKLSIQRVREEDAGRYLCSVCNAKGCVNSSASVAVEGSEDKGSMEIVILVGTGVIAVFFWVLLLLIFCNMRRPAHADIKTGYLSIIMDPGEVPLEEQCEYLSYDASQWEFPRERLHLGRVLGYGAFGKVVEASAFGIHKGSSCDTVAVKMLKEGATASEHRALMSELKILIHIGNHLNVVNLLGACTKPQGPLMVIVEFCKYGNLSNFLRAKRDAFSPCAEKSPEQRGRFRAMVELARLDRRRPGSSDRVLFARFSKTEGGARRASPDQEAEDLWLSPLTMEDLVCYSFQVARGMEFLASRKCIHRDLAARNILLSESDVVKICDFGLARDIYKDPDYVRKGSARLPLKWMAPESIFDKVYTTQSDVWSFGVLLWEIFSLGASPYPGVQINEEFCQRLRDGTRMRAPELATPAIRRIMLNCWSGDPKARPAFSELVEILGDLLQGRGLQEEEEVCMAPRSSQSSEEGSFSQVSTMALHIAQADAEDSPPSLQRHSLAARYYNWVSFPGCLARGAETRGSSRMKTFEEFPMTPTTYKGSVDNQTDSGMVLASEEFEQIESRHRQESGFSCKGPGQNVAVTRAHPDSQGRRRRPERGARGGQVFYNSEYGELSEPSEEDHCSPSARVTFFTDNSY

COc1ccc(-c2ccc3c(N4CCOC[C@@H]4C)nc(N4CCOC[C@@H]4C)nc3n2)cc1CO [AZD8055]
< 6: all assays above

CCNC(=O)Nc1ccc(-c2nc(N3CCOC[C@@H]3C)c3c(n2)C(C)(C)S(=O)(=O)C3)cc1 [CZ415]
< 6: all assays above
